Data on 18 compounds can be found in patent US20260015358A1, “BICYCLIC DERIVATIVES, COMPOSITIONS AND USES THEREOF” (Danatlas Pharmaceuticals Co., Ltd., priority 2023, published 2026).

Assay [1] addresses T1, WRN [UniPro: Q14191 (WRN_HUMAN), N500-C946] (Homo sapiens (Human), UniProt Q14191). The assay can be described thus: WRN unwinding assay (FORKF DNA, fluorescence). It counts as biochemical. Conditions: Table 14.
The target in assay [2] is T1, WRN [UniPro: Q14191 (WRN_HUMAN), N500-C946]. The assay can be described thus: WRN ATPase assay (ADP-Glo). It counts as biochemical. To be noted: WRN enzymatic activity assay.

T1 sequence (Q14191 500-946): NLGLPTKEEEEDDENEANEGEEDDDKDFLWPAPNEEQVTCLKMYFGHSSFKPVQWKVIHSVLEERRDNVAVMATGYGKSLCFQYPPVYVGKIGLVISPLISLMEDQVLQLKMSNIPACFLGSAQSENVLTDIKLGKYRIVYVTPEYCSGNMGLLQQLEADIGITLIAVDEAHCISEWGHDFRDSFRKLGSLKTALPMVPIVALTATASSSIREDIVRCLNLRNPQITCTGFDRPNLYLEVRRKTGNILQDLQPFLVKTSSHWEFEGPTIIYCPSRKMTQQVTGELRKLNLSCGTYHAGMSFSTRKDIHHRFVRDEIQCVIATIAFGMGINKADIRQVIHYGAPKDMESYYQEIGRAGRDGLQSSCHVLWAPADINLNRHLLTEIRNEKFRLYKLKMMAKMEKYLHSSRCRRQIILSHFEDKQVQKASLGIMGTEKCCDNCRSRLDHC

Take `CCc1c(N2CCN(C(=O)CNC(=O)c3ncco3)CC2)c(=O)n2nc(C3=CCOCC3)nc2n1CC(=O)Nc1ccc(C(F)(F)F)cc1F` [Example 217, N-(2-(4-(2-(3,6-Dihydro-2H-pyran-4-yl)-5-ethyl-4-(2-((2-fluoro-4-(trifluoromethyl)phenyl)amino)-2-oxoethyl)-7-oxo-4,7-dihydro-[1,2,4]triazolo[1,5-a]pyrimidin-6-yl)piperazin-1-yl)-2-oxoethyl)oxazole-2-carboxamide]: the half-maximal inhibitory concentration (IC50) in assay [1] and in assay [2] was under 0.1 µM each time.

In the case of `CCc1c(N2CCN(C(=O)CNC(=O)Nc3cc(F)cc(F)c3)CC2)c(=O)n2nc(C3=CCOCC3)nc2n1CC(=O)Nc1ccc(C(F)(F)F)cc1Cl` [Example 179, N-(2-Chloro-4-(trifluoromethyl)phenyl)-2-(6-(4-(((3,5-difluorophenyl)carbamoyl)glycyl)piperazin-1-yl)-2-(3,6-dihydro-2H-pyran-4-yl)-5-ethyl-7-oxo-[1,2,4]triazolo[1,5-a]pyrimidin-4(7H)-yl)acetamide], the IC50 in assay [1] and in assay [2] was under 0.1 µM in each case.

For `CCc1c(N2CCN(C(=O)CNC(=O)c3ncccc3F)CC2)c(=O)n2nc(C3=CCOCC3)nc2n1CC(=O)Nc1ccc(C(F)(F)F)cc1Cl` [Example 133, N-(2-(4-(4-(2-((2-Chloro-4-(trifluoromethyl)phenyl)amino)-2-oxoethyl)-2-(3,6-dihydro-2H-pyran-4-yl)-5-ethyl-7-oxo-4,7-dihydro-[1,2,4]triazolo[1,5-a]pyrimidin-6-yl)piperazin-1-yl)-2-oxoethyl)-3-fluoropicolinamide], the IC50 in assay [1] and in assay [2] was under 0.1 µM in each case.

In the case of `CCc1c(N2CCN(C(=O)c3nc4ccsc4cc3O)CC2)c(=O)n2nc(C3=CCOCC3)nc2n1CC(=O)Nc1ccc(C(F)(F)F)cc1Cl` [Example 305, N-(2-Chloro-4-(trifluoromethyl)phenyl)-2-(2-(3,6-dihydro-2H-pyran-4-yl)-5-ethyl-6-(4-(6-hydroxythieno[3,2-b]pyridine-5-carbonyl)piperazin-1-yl)-7-oxo-[1,2,4]triazolo[1,5-a]pyrimidin-4(7H)-yl)acetamide], the IC50 in assay [1] and in assay [2] was under 0.1 µM in each case.

For `CCc1c(N2CCN(C(=O)c3cnc4sc(Cl)nc4c3O)CC2)c(=O)n2nc(C3=CCOCC3)nc2n1CC(=O)Nc1ccc(C(F)(F)F)cc1F` [Example 308, 2-(6-(4-(2-Chloro-7-hydroxythiazolo[5,4-b]pyridine-6-carbonyl)piperazin-1-yl)-2-(3,6-dihydro-2H-pyran-4-yl)-5-ethyl-7-oxo-[1,2,4]triazolo[1,5-a]pyrimidin-4(7H)-yl)-N-(2-fluoro-4-(trifluoromethyl)phenyl)acetamide], the IC50 in assay [1] and in assay [2] was under 0.1 µM throughout.

On to `CCc1c(N2CCN(C(=O)CNC(=O)c3ccccc3F)CC2)c(=O)n2nc(C3=CCOCC3)nc2n1CC(=O)Nc1sc(C)cc1Br` [Example 152, N-(2-(4-(4-(2-((3-bromo-5-methylthiophen-2-yl)amino)-2-oxoethyl)-2-(3,6-dihydro-2H-pyran-4-yl)-5-ethyl-7-oxo-4,7-dihydro-[1,2,4]triazolo[1,5-a]pyrimidin-6-yl)piperazin-1-yl)-2-oxoethyl)-2-fluorobenzamide], for which the IC50 is under 0.1 µM in assay [1] and 0.1 to 1 µM in assay [2].

Consider `CCc1c(N2CCN(C(=O)CNC(=O)c3ccccc3)CC2)c(=O)n2nc(N3Cc4ccncc4C3)nc2n1CC(=O)Nc1ccc(C(F)(F)F)cc1Cl` [Example 232, N-(2-(4-(4-(2-((2-Chloro-4-(trifluoromethyl)phenyl)amino)-2-oxoethyl)-2-(1,3-dihydro-2H-pyrrolo[3,4-c]pyridin-2-yl)-5-ethyl-7-oxo-4,7-dihydro-[1,2,4]triazolo[1,5-a]pyrimidin-6-yl)piperazin-1-yl)-2-oxoethyl)benzamide], for which the IC50 in assay [1] and in assay [2] was under 0.1 µM each time.

For the compound `CCc1c(N2CCN(C(=O)CNC(=O)c3ccon3)CC2)c(=O)n2nc(C3=CCOCC3)nc2n1CC(=O)Nc1ccc(C(F)(F)F)cc1F` [Example 221, N-(2-(4-(2-(3,6-Dihydro-2H-pyran-4-yl)-5-ethyl-4-(2-((2-fluoro-4-(trifluoromethyl)phenyl)amino)-2-oxoethyl)-7-oxo-4,7-dihydro-[1,2,4]triazolo[1,5-a]pyrimidin-6-yl)piperazin-1-yl)-2-oxoethyl)isoxazole-3-carboxamide], the IC50 in assay [1] and in assay [2] was under 0.1 µM in each case.

Turning to `CCc1c(N2CCN(C(=O)C(=O)Nc3cc(C)on3)CC2)c(=O)n2nc(N3CCOCC3)nc2n1CC(=O)Nc1ccc(C(F)(F)F)cc1Cl` [Example 352, 2-(4-(4-(2-((2-Chloro-4-(trifluoromethyl)phenyl)amino)-2-oxoethyl)-5-ethyl-2-morpholino-7-oxo-4,7-dihydro-[1,2,4]triazolo[1,5-a]pyrimidin-6-yl)piperazin-1-yl)-N-(5-methylisoxazol-3-yl)-2-oxoacetamide], the IC50 in assay [1] and in assay [2] was 0.1 to 1 µM throughout.

Turning to `CCc1c(N2CCN(C(=O)C(=O)Nc3nnc(Cl)s3)CC2)c(=O)n2nc(C3=CCOCC3)nc2n1CC(=O)Nc1ccc(C(F)(F)F)cc1Cl` [Example 351, N-(5-Chloro-1,3,4-thiadiazol-2-yl)-2-(4-(4-(2-((2-chloro-4-(trifluoromethyl)phenyl)amino)-2-oxoethyl)-2-(3,6-dihydro-2H-pyran-4-yl)-5-ethyl-7-oxo-4,7-dihydro-[1,2,4]triazolo[1,5-a]pyrimidin-6-yl)piperazin-1-yl)-2-oxoacetamide], the IC50 in assay [1] and in assay [2] was under 0.1 µM in each case.

`CCc1c(N2CCN(C(=O)CNC(=O)c3c(Cl)cccc3Cl)CC2)c(=O)n2nc(C3=CCOCC3)nc2n1CC(=O)Nc1ccc(C(F)(F)F)cc1Cl` [Example 125, 2,6-Dichloro-N-(2-(4-(4-(2-((2-chloro-4-(trifluoromethyl)phenyl)amino)-2-oxoethyl)-2-(3,6-dihydro-2H-pyran-4-yl)-5-ethyl-7-oxo-4,7-dihydro-[1,2,4]triazolo[1,5-a]pyrimidin-6-yl)piperazin-1-yl)-2-oxoethyl)benzamide]: the IC50 is under 0.1 µM in assay [1] and 0.1 to 1 µM in assay [2].

For `CCc1c(N2CCN(C(=O)C(=O)N3CCCC3)CC2)c(=O)n2nc(C3=CCOCC3)nc2n1CC(=O)Nc1ccc(C(F)(F)F)cc1Cl` [Example 358, N-(2-Chloro-4-(trifluoromethyl)phenyl)-2-(2-(3,6-dihydro-2H-pyran-4-yl)-5-ethyl-7-oxo-6-(4-(2-oxo-2-(pyrrolidin-1-yl)acetyl)piperazin-1-yl)-[1,2,4]triazolo[1,5-a]pyrimidin-4(7H)-yl)acetamide], the IC50 in assay [1] and in assay [2] was 0.1 to 1 µM in each case.

As to `CCc1c(N2CCN(C(=O)CNC(=O)[C@@H]3CCCO3)CC2)c(=O)n2nc(C3=CCOCC3)nc2n1CC(=O)Nc1ccc(C(F)(F)F)cc1Cl` [Example 322, (S)—N-(2-(4-(4-(2-((2-Chloro-4-(trifluoromethyl)phenyl)amino)-2-oxoethyl)-2-(3,6-dihydro-2H-pyran-4-yl)-5-ethyl-7-oxo-4,7-dihydro-[1,2,4]triazolo[1,5-a]pyrimidin-6-yl)piperazin-1-yl)-2-oxoethyl)tetrahydrofuran-2-carboxamide], the IC50 in assay [1] and in assay [2] was under 0.1 µM in each case.

As to `CCCC(=O)NCC(=O)N1CCN(c2c(CC)n(CC(=O)Nc3ccc(C(F)(F)F)cc3Cl)c3nc(C4=CCOCC4)nn3c2=O)CC1` [Example 94, N-(2-(4-(4-(2-((2-Chloro-4-(trifluoromethyl)phenyl)amino)-2-oxoethyl)-2-(3,6-dihydro-2H-pyran-4-yl)-5-ethyl-7-oxo-4,7-dihydro-[1,2,4]triazolo[1,5-a]pyrimidin-6-yl)piperazin-1-yl)-2-oxoethyl)butyramide], the IC50 in assay [1] and in assay [2] was under 0.1 µM throughout.

Consider `CCc1c(N2CCN(C(=O)CNc3nc(=O)c4ccccc4[nH]3)CC2)c(=O)n2nc(C3=CCOCC3)nc2n1CC(=O)Nc1ccc(C(F)(F)F)cc1Cl` [Example 208, N-(2-Chloro-4-(trifluoromethyl)phenyl)-2-(2-(3,6-dihydro-2H-pyran-4-yl)-5-ethyl-7-oxo-6-(4-((4-oxo-1,4-dihydroquinazolin-2-yl)glycyl)piperazin-1-yl)-[1,2,4]triazolo[1,5-a]pyrimidin-4(7H)-yl)acetamide], for which the IC50 in assay [1] and in assay [2] was under 0.1 µM each time.

`CCc1c(N2CCN(C(=O)c3cnc4[nH]ccc4c3O)CC2)c(=O)n2nc(C3=CCOCC3)nc2n1CC(=O)Nc1ccc(C(F)(F)F)cc1Cl` [Example 42, N-(2-Chloro-4-(trifluoromethyl)phenyl)-2-(2-(3,6-dihydro-2H-pyran-4-yl)-5-ethyl-6-(4-(4-hydroxy-1H-pyrrolo[2,3-b]pyridine-5-carbonyl)piperazin-1-yl)-7-oxo-[1,2,4]triazolo[1,5-a]pyrimidin-4(7H)-yl)acetamide]: the IC50 in assay [1] and in assay [2] was under 0.1 µM throughout.

On to `CCc1c(N2CCN(C(=O)c3cnc4scnc4c3O)CC2)c(=O)n2nc(C3=CCOCC3)nc2n1CC(=O)Nc1ccc(C(F)(F)F)cc1Cl` [Example 49, N-(2-Chloro-4-(trifluoromethyl)phenyl)-2-(2-(3,6-dihydro-2H-pyran-4-yl)-5-ethyl-6-(4-(7-hydroxythiazolo[5,4-b]pyridine-6-carbonyl)piperazin-1-yl)-7-oxo-[1,2,4]triazolo[1,5-a]pyrimidin-4(7H)-yl)acetamide], for which the IC50 in assay [1] and in assay [2] was under 0.1 µM throughout.

Regarding `CCc1c(N2CCN(C(=O)c3cnn4cccc4c3O)CC2)c(=O)n2nc(C3=CCOCC3)nc2n1CC(=O)Nc1sc(C)cc1Br` [Example 146, N-(3-Bromo-5-methylthiophen-2-yl)-2-(2-(3,6-dihydro-2H-pyran-4-yl)-5-ethyl-6-(4-(4-hydroxypyrrolo[1,2-b]pyridazine-3-carbonyl)piperazin-1-yl)-7-oxo-[1,2,4]triazolo[1,5-a]pyrimidin-4(7H)-yl)acetamide], the IC50 in assay [1] and in assay [2] was 0.1 to 1 µM throughout.
